Results reported in US20120309753A1, “METHOD OF DISSOLVING ANTIFUNGAL AGENT, AND COMPOSITIONS WITH A HIGH CONCENTRATION OF ANTIFUNGAL AGENT, SUITABLE FOR APPLICATION TO THE NAIL” (GALDERMA RESEARCH & DEVELOPMENT, priority 2009, published 2012).
Counter-ions that a name gives are not always drawn. Like-named read-outs stand apart in the source and are kept apart here.

Tests used:
[1] = Visual solubility of terbinafine HCl in solvent systems (Method 1); assay type: physicochemical
Procedure: Terbinafine HCl is weighed out accurately into a 20 ml flask and then the solvents are added. The flask is subsequently placed, with magnetic stirring, in a chamber thermostated at 20° C., for 16 h. If some of the active ingredient has not dissolved, a further addition of solvent is made. The flask is then placed again, with magnetic stirring, in the thermostated chamber, for 16 h, until dissolution is complete. If this is not so, the preceding step is repeated.

[2] = Procedure: Different solubility tests on terbinafine HCl were carried out in different solvent systems. The solubility was both estimated visually by Method 1 below, then quantified by HPLC assay by Method 2 below.
Weigh out precisely approximately 15 mg of terbinafine HCl into a 50 ml volumetric flask. Dissolve in the diluent and make up to the volume with the same solvent. Prepare the solution in duplicate (A1, A2)
Dilute solution A to 1/5 in the diluent. Dilution
The standard range is produced by varying the injection volume of solution A, at an equivalent concentration of 4 μg/ml to 120 μg/ml.
2 tests per sample are prepared, of concentrations from 40 μg/ml to 100 μg/ml.
• Column: Sun Fire C18 4.6×100 mm 3.5 μm, fitted with a precolumn. • Column temperature: 30° C. • Flow rate: 1.5 ml/min • Injected volume: 30 μl for the sample solutions • Analysis time: 10 min • Detection at: 285 nm • Gradient:
• Inject a blank sample (diluent) and check that no peak of the blank sample interferes with the terbinafine HCl. • Inject solutions STD1 and STD2 and check that the % deviation between the 2 controls is <2%.

[3] = tested on: Trichophyton rubrum; settings: oral route, 250 mg/day for 6 months; cited from earlier work

Compound | visual solubility ([1]; 15% water, 70% ethanol, 15% propylene glycol) [% w/w] | visual solubility ([1]; 15% water, 70% propylene glycol, 15% ethanol) [% w/w] | visual solubility ([1]; 30% water, 35% propylene glycol, 35% ethanol) [% w/w] | visual solubility ([1]; 33% water, 33% propylene glycol, 33% ethanol) [% w/w] | visual solubility ([1]; 50/50 ethanol/propylene glycol mixture, 20° C.) [% w/w] | visual solubility ([1]; binary water/ethanol mixture (50/50), 20° C.) [% w/w] | visual solubility ([1]; binary water/propylene glycol mixture (50/50), 20° C.) [% w/w] | visual solubility ([1]; in ethanol, 20° C.) [% w/w] | visual solubility ([1]; in propylene glycol, 20° C.) [% w/w] | visual solubility ([1]; in water, 20° C.) [% w/w] | solubility ([1]; ternary water/propylene glycol/ethanol mixture containing at least 30% of water (Graph 1)) | solubility by HPLC assay ([2]; 50/50 ethanol/propylene glycol mixture) [% w/w] | expected solubility by additive effect ([2]; ethanol/propylene glycol binary mixture, expected from the single solvents) [%] | solubility by HPLC assay ([2]; in ethanol) [% w/w] | solubility by HPLC assay ([2]; in propylene glycol) [% w/w] | solubility ([1]; ternary mixture with 40% of water, amount of ethanol greater than or equal to that of propylene glycol) | efficacy in the treatment of onychomycoses due to Trichophyton rubrum [3]
CN(C/C=C/C#CC(C)(C)C)Cc1cccc2ccccc12 [terbinafine HCl, terbinafine hydrochloride] | 25.2 | 25.0 | 18.5 | 15.5 | 23.3 | 16.7 | 2.2 | 19.7 | 8.9 | 0.6 | greater than 10% | 20.4 | ~14 | 18.09 | 10.3 |  | 
CN(C/C=C/C#CC(C)(C)C)Cc1cccc2ccccc12 [terbinafine] |  |  |  |  |  |  |  |  |  |  |  |  |  |  |  | greater than 10% | effective
